What all share (format): in vivo
Series [1] has as its system rabbit illiac arteries. Put plainly: Example 2: drug-loaded Atrium Flyer stents vs Taxus Express in rabbit iliac arteries for 28 days, histomorphic and histopathologic analyses. Particulars: for EEL Area / IEL Area / Intimal Area / Lumen Area / Stenosis: mean ± SD. On the procedure: Histomorphic and histopathologic analyses are then performed.
In series [2] the test system is rabbit illiac arteries. Put plainly: Example 1: stents implanted in rabbit iliac arteries for 28 days, histomorphic and histopathologic analyses. Details: Injury Score / Fibrin Score / Inflamm. Score: scale not given here. To be noted: for % Endothel. / % struts with Fibrin / % struts with RBC / EEL Area / Fibrin Score / IEL Area / Inflamm. Score / Injury Score / Intimal Area / Intimal Thick. / Lumen Area / Medial Area / Medial Thick. / Stenosis / Struts with Giant cells: Atrium Flyer ALPHA-3 coated stent, mean ± SD. On the procedure:
The Atrium Flyer is compared with bare metal stents, the Atrium Flyer coated with ALPHA-3 without drugs, and Cypher™ drug eluting stent. Histomorphic and histopathologic analyses are then performed.

For another series, the system named is rabbit's iliac vessel. The experiment in a line: Rapamycin drug eluting stents in rabbit iliac vessel, inflammation (inventors' earlier studies). From the text: The inventors postulate, based on these animal study results, that one consequence of these types of drugs is retarded endothelial cell coverage, and that current drug eluting stents promote more chronic inflammation than would normally be present with a non drug eluting bare metal stent.

For another series, the system named is rabbit iliacs. Put plainly: Calcineurin inhibiting compounds after vascular injury in rabbit iliacs (inventors' earlier studies). Particulars: local delivery, also rat, by reducing giant cell and eosinophil formation. From the text: Studies in rabbit iliacs following vascular injury conducted by and/or on behalf of the inventors show the benefits of using calcineurin inhibiting compounds like Tacrolimus, Cyclosporin A (CsA) and Cyclosporin derivatives, in small animals like the rat, and in rabbits. […] Such vascular injury and sirolimus medicated inflammation can be characterized as having excessive giant cell formation and esinophil propagation.

Where [3] appears, read: Atrium Flyer ALPHA-3 coated stent loaded with high dose of the drug, 28 days.
Setting [4] is: Atrium Flyer ALPHA-3 coated stent loaded with low dose of the drug, 28 days.
The mark [5] stands for this setting: Atrium Flyer ALPHA-3 coated stent loaded with mid-dose of the drug, 28 days.
[6] abbreviates: sirolimus = Atrium drug coated stents, Cypher = commercial stent.

Regarding `O=C1CCc2cc(OCCCCc3nnnn3C3CCCCC3)ccc2N1` [Cilostazol, cilostazol], in the series on rabbit illiac arteries [1] (setting [3]), the “EEL Area” value is reported as 5.73 ± 0.31 mm^2, the “IEL Area” value stood at 5.47 ± 0.26 mm^2, the “Intimal Area” value is on record as 1.245 ± 0.303 mm^2 and the “Lumen Area” value was determined as 4.25 ± 0.42 mm^2. The Stenosis in the series with rabbit illiac arteries [1] (setting [3]) is given as 22.7 ± 5.9%. Besides, in the series with rabbit illiac arteries [1] (setting [4]), the “EEL Area” value was determined as 5.80 ± 0.22 mm^2, the “IEL Area” value worked out at 5.51 ± 0.21 mm^2, the “Intimal Area” value is recorded as 1.246 ± 0.115 mm^2 and the “Lumen Area” value turned out to be 4.26 ± 0.28 mm^2. This molecule also displayed a Stenosis with rabbit illiac arteries [1] (setting [4]) of 22.7 ± 2.4%. For the same molecule, in the series with rabbit illiac arteries [1] (setting [5]), the “EEL Area” value is recorded as 5.70 ± 0.16 mm^2, the “IEL Area” value is 5.43 ± 0.14 mm^2, the “Intimal Area” value was 1.257 ± 0.321 mm^2 and the “Lumen Area” value is on record as 4.25 ± 0.39 mm^2. The same molecule gave a Stenosis in the series on rabbit illiac arteries [1] (setting [5]) of 23.0 ± 5.7%. Besides, the “reduction in neointima (in words)” value in the series with rabbit illiac arteries [1] (Atrium Flyer coated stents, 28 days) is “No reduction in neointima”.
With `CO[C@H]1C[C@@H]2CC[C@@H](C)[C@@](O)(O2)C(=O)C(=O)N2CCCC[C@H]2C(=O)O[C@H]([C@H](C)C[C@@H]2CC[C@@H](O)[C@H](OC)C2)CC(=O)[C@H](C)/C=C(\C)[C@@H](O)[C@@H](OC)C(=O)[C@H](C)C[C@H](C)/C=C/C=C/C=C/1C` [Sirolimus, Sirolimus (rapamycin)], in the series with rabbit illiac arteries [1] (setting [3]), the “EEL Area” value is 6.13 ± 0.15 mm^2, the “IEL Area” value turned out to be 5.80 ± 0.16 mm^2, the “Intimal Area” value came out at 1.027 ± 0.036 mm^2 and the “Lumen Area” value came to 4.78 ± 0.20 mm^2. In addition, the Stenosis in the series with rabbit illiac arteries [1] (setting [3]) is recorded as 17.7 ± 1.1%. In addition, the “arterial healing (in words)” value with rabbit illiac arteries [1] (rabbit, in vivo) is “(greater) arterial healing”. Besides, in the series on rabbit illiac arteries [1] (rabbit, in vivo, 28 days), the “% Struts with Giant cells” value stood at 21.9 ± 7.6%, the “% struts with RBC” value amounted to 1.2 ± 2.4%, the “Endothelium (%)” value is recorded as 97.2 ± 5.0% and the “Fibrin Score” value is on record as 0.41 ± 0.32. The “Inflam Score” value in the series on rabbit illiac arteries [1] (rabbit, in vivo, 28 days) was found to be 1.00 ± 0.72. Moreover, the “tolerability / adverse reaction” value in the series on rabbit illiac arteries [2] (Atrium Flyer ALPHA-3 coated stent loaded with low or high doses of sirolimus) is on record as “well tolerated, producing no adverse reaction”. Besides, in the series on rabbit illiac arteries [2] (high dose sirolimus, n = 10), the “% Endothel.” value was determined as 97.90 ± 4.58%, the “% struts with Fibrin” value is on record as 11.99 ± 6.81%, the “% struts with RBC” value amounted to 2.86 ± 3.23% and the “EEL Area” value came to 6.24 ± 0.25 mm^2. In the series with rabbit illiac arteries [2] (high dose sirolimus, n = 10), the “Fibrin Score” value is on record as 0.11 ± 0.09, the “IEL Area” value is 5.90 ± 0.25 mm^2, the “Inflamm. Score” value is listed as 0.03 ± 0.10 and the “Injury Score” value is 0.04 ± 0.06. Also, in the series on rabbit illiac arteries [2] (high dose sirolimus, n = 10), the “Intimal Area” value came to 0.99 ± 0.10 mm^2, the “Intimal Thick.” value is reported as 0.08 ± 0.03 mm, the “Lumen Area” value turned out to be 4.94 ± 0.27 mm^2 and the “Medial Area” value was determined as 0.34 ± 0.05 mm^2. Besides, in the series on rabbit illiac arteries [2] (high dose sirolimus, n = 10), the “Medial Thick.” value was 0.06 ± 0.02 mm and the Stenosis was 16.73 ± 1.61%. The “Struts with Giant cells” value with rabbit illiac arteries [2] (high dose sirolimus, n = 10, in % (unit assumed)) came to 2.80 ± 0.63. In the series with rabbit illiac arteries [2] (low dose sirolimus, n = 8), the “% Endothel.” value amounted to 97.62 ± 2.67%, the “% struts with Fibrin” value was found to be 34.12 ± 20.62%, the “% struts with RBC” value is 3.46 ± 3.07% and the “EEL Area” value worked out at 5.99 ± 0.44 mm^2. Moreover, in the series on rabbit illiac arteries [2] (low dose sirolimus, n = 8), the “Fibrin Score” value is on record as 0.20 ± 0.35, the “IEL Area” value is listed as 5.63 ± 0.38 mm^2, the “Inflamm. Score” value turned out to be 0.53 ± 0.41 and the “Injury Score” value worked out at 0.06 ± 0.07. Further, in the series on rabbit illiac arteries [2] (low dose sirolimus, n = 8), the “Intimal Area” value was 0.97 ± 0.11 mm^2, the “Intimal Thick.” value came to 0.07 ± 0.01 mm, the “Lumen Area” value amounted to 4.74 ± 0.32 mm^2 and the “Medial Area” value was 0.36 ± 0.09 mm^2. For the same molecule, in the series with rabbit illiac arteries [2] (low dose sirolimus, n = 8), the “Medial Thick.” value amounted to 0.05 ± 0.01 mm and the Stenosis amounted to 17.15 ± 1.84%. Besides, the “Struts with Giant cells” value in the series with rabbit illiac arteries [2] (low dose sirolimus, n = 8, in % (unit assumed)) worked out at 2.50 ± 1.41. For the same molecule, in the series with rabbit illiac arteries [2] (setting [6]), the “endothelialization (in words)” value was “well endothelialized” and the “healing (in words)” value is listed as “delayed healing”. Also, the “inflammatory response around the drug eluting stent (in words)” value in the series with rabbit's iliac vessel (Rapamycin drug eluting stent, rabbit iliacs) was “presence of numerous giant cells and esinophils”. For the same molecule, in the series with rabbit's iliac vessel (two separate rapamycin drug eluting stents overlapping in rabbit iliac vessel), the “amount of inflammation induced by overlapping drug coating” value is listed as “increases nearly two fold”.
Turning to `C=CC[C@@H]1/C=C(\C)C[C@H](C)C[C@H](OC)[C@H]2O[C@@](O)(C(=O)C(=O)N3CCCC[C@H]3C(=O)O[C@H](/C(C)=C/[C@@H]3CC[C@@H](O)[C@H](OC)C3)[C@H](C)[C@@H](O)CC1=O)[C@H](C)C[C@@H]2OC` [Tacrolimus], the “inflammation following vascular injury (in words)” value in the series on rabbit iliacs was “effectively reduce inflammation following vascular injury”.
For Cyclosporin A, the “inflammation following vascular injury (in words)” value with rabbit iliacs is recorded as “effectively reduce inflammation following vascular injury”.
Take `CC(=O)O[C@H]1C(=O)[C@@]2(C)[C@H]([C@H](OC(=O)c3ccccc3)[C@]3(O)C[C@H](OC(=O)[C@H](O)[C@@H](NC(=O)c4ccccc4)c4ccccc4)C(C)=C1C3(C)C)[C@]1(OC(C)=O)CO[C@@H]1C[C@@H]2O` [Paclitaxel, paclitaxel]: in the series with rabbit illiac arteries [1] (setting [3]), the “EEL Area” value is listed as 5.63 ± 0.24 mm^2, the “IEL Area” value was 5.40 ± 0.24 mm^2, the “Intimal Area” value is 1.048 ± 0.084 mm^2 and the “Lumen Area” value is listed as 4.35 ± 0.22 mm^2. Further, the Stenosis in the series on rabbit illiac arteries [1] (setting [3]) amounted to 19.4 ± 1.5%. In addition, in the series with rabbit illiac arteries [1] (setting [4]), the “EEL Area” value came out at 5.88 ± 0.41 mm^2, the “IEL Area” value amounted to 5.58 ± 0.36 mm^2, the “Intimal Area” value worked out at 1.234 ± 0.197 mm^2 and the “Lumen Area” value is on record as 4.35 ± 0.40 mm^2. In the series with rabbit illiac arteries [1] (setting [4]), this molecule gave a Stenosis of 22.2 ± 4.0%. In the series with rabbit illiac arteries [1] (setting [5]), the “EEL Area” value stood at 5.56 ± 0.26 mm^2, the “IEL Area” value is 5.31 ± 0.25 mm^2, the “Intimal Area” value stood at 1.152 ± 0.243 mm^2 and the “Lumen Area” value worked out at 4.16 ± 0.27 mm^2. Further, the Stenosis with rabbit illiac arteries [1] (setting [5]) is 21.8 ± 5.0%. Besides, in the series with rabbit illiac arteries [1] (Atrium high dose stents, 28 days, compared with Taxus Express), the “in-stent neointimal growth (in words)” value is given as “suppresses in-stent neointimal growth”. The “arterial healing (in words)” value in the series on rabbit illiac arteries [1] (rabbit, in vivo) is “(greater) arterial healing”.

Source of the values: patent US20100004738A1, “DRUG DELIVERY COATING FOR USE WITH A MEDICAL DEVICE AND METHODS OF TREATING VASCULAR INJURY” (ATRIUM MEDICAL CORPORATION, priority 2005, published 2010).
